Source: patent US12473250B2, “Molecular design of new antibiotics and antibiotic adjuvants against MCR strains” (priority 2019, dated 2025)

Tested on: various pathogens
Assay: organism not typed
Type: cell-based
Summary of the method: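 Broth microdilution MIC per CLSI: each agent alone and LC compound plus antibiotic (e.g. colistin) combined in equal amounts, serially diluted 2-fold at fixed synergy concentration.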

[1] = 6093560257 [MCR 1+, E. Coli, NDM-1]
[2] = 7103531927 [MCR 1+, E. Coli, KPC+]
[3] = 7113636863 [MCR 1+, E. Coli, NDM-1]

Colistin
FOLD CHANGES [Absorbance (abs; OD 600 nm)] No Treatment [Bacteria alone]: Colistin 0.5 μg (6083655967 [MCR 1+, E. Coli]): 1.10
FOLD CHANGES [Absorbance (abs; OD 600 nm)] No Treatment [Bacteria alone]: MIC Colistin (6083655967 [MCR 1+, E. Coli]): 19.59
MIC (6083655967 [MCR 1+, E. Coli]): 6.25 µg/mL
FOLD CHANGES [Absorbance (abs; OD 600 nm)] No Treatment [Bacteria alone]: Colistin 0.5 μg [1]: 1.14
FOLD CHANGES [Absorbance (abs; OD 600 nm)] No Treatment [Bacteria alone]: MIC Colistin [1]: 21.59
MIC [1]: 6.25 µg/mL
FOLD CHANGES [Absorbance (abs; OD 600 nm)] No Treatment [Bacteria alone]: Colistin 0.5 μg (6123520276 [MCR 1+, E. Coli]): 1.04
FOLD CHANGES [Absorbance (abs; OD 600 nm)] No Treatment [Bacteria alone]: MIC Colistin (6123520276 [MCR 1+, E. Coli]): 20.10
MIC (6123520276 [MCR 1+, E. Coli]): 6.25 µg/mL
FOLD CHANGES [Absorbance (abs; OD 600 nm)] No Treatment [Bacteria alone]: Colistin 0.5 μg (7023436560 [MCR 1+, E. Coli]): 1.14
FOLD CHANGES [Absorbance (abs; OD 600 nm)] No Treatment [Bacteria alone]: MIC Colistin (7023436560 [MCR 1+, E. Coli]): 18.70
MIC (7023436560 [MCR 1+, E. Coli]): 6.25 µg/mL
FOLD CHANGES [Absorbance (abs; OD 600 nm)] No Treatment [Bacteria alone]: Colistin 0.5 μg (7023444207 [MCR 1+, E. Coli]): 1.10
FOLD CHANGES [Absorbance (abs; OD 600 nm)] No Treatment [Bacteria alone]: MIC Colistin (7023444207 [MCR 1+, E. Coli]): 17.44
MIC (7023444207 [MCR 1+, E. Coli]): 6.25 µg/mL
FOLD CHANGES [Absorbance (abs; OD 600 nm)] No Treatment [Bacteria alone]: Colistin 0.5 μg (7023446108 [MCR 1−, E. Coli]): 1.15
FOLD CHANGES [Absorbance (abs; OD 600 nm)] No Treatment [Bacteria alone]: MIC Colistin (7023446108 [MCR 1−, E. Coli]): 18.04
MIC (7023446108 [MCR 1−, E. Coli]): 6.25 µg/mL
FOLD CHANGES [Absorbance (abs; OD 600 nm)] No Treatment [Bacteria alone]: Colistin 0.5 μg (7033607097 [MCR 1−, E. Coli]): 1.35
FOLD CHANGES [Absorbance (abs; OD 600 nm)] No Treatment [Bacteria alone]: MIC Colistin (7033607097 [MCR 1−, E. Coli]): 15.21
MIC (7033607097 [MCR 1−, E. Coli]): 6.25 µg/mL
FOLD CHANGES [Absorbance (abs; OD 600 nm)] No Treatment [Bacteria alone]: Colistin 0.5 μg [2]: 1.06
FOLD CHANGES [Absorbance (abs; OD 600 nm)] No Treatment [Bacteria alone]: MIC Colistin [2]: 17.67
MIC [2]: 6.25 µg/mL
FOLD CHANGES [Absorbance (abs; OD 600 nm)] No Treatment [Bacteria alone]: Colistin 0.5 μg [3]: 1.06
FOLD CHANGES [Absorbance (abs; OD 600 nm)] No Treatment [Bacteria alone]: MIC Colistin [3]: 16.97
MIC [3]: 6.25 µg/mL
FOLD CHANGES [Absorbance (abs; OD 600 nm)] No Treatment [Bacteria alone]: Colistin 0.5 μg (ACBA 1003 (CI)): 1.26
FOLD CHANGES [Absorbance (abs; OD 600 nm)] No Treatment [Bacteria alone]: MIC Colistin (ACBA 1003 (CI)): 12.60
MIC (ACBA 1003 (CI)): 1.56 µg/mL
FOLD CHANGES [Absorbance (abs; OD 600 nm)] No Treatment [Bacteria alone]: Colistin 0.5 μg (ACBA 1004 (CI)): 1.09
FOLD CHANGES [Absorbance (abs; OD 600 nm)] No Treatment [Bacteria alone]: MIC Colistin (ACBA 1004 (CI)): 23.71
MIC (ACBA 1004 (CI)): 1.56 µg/mL
FOLD CHANGES [Absorbance (abs; OD 600 nm)] No Treatment [Bacteria alone]: Colistin 0.5 μg (ACBA 1005 (CI)): 1.02
FOLD CHANGES [Absorbance (abs; OD 600 nm)] No Treatment [Bacteria alone]: MIC Colistin (ACBA 1005 (CI)): 22.34
MIC (ACBA 1005 (CI)): 1.56 µg/mL
FOLD CHANGES [Absorbance (abs; OD 600 nm)] No Treatment [Bacteria alone]: Colistin 0.5 μg (ACBA 1006 (CI)): 1.12
FOLD CHANGES [Absorbance (abs; OD 600 nm)] No Treatment [Bacteria alone]: MIC Colistin (ACBA 1006 (CI)): 23.81
MIC (ACBA 1006 (CI)): 1.56 µg/mL
FOLD CHANGES [Absorbance (abs; OD 600 nm)] No Treatment [Bacteria alone]: Colistin 0.5 μg (ACBA 1010 (CI)): 1.13
FOLD CHANGES [Absorbance (abs; OD 600 nm)] No Treatment [Bacteria alone]: MIC Colistin (ACBA 1010 (CI)): 21.43
MIC (ACBA 1010 (CI)): 0.39 µg/mL
FOLD CHANGES [Absorbance (abs; OD 600 nm)] No Treatment [Bacteria alone]: Colistin 0.5 μg (ACBA ATCC 19606): 2.04
FOLD CHANGES [Absorbance (abs; OD 600 nm)] No Treatment [Bacteria alone]: MIC Colistin (ACBA ATCC 19606): 16.14
MIC (ACBA ATCC 19606): 0.78 µg/mL
FOLD CHANGES [Absorbance (abs; OD 600 nm)] No Treatment [Bacteria alone]: Colistin 0.5 μg (ACBA DR 43357): 1.06
FOLD CHANGES [Absorbance (abs; OD 600 nm)] No Treatment [Bacteria alone]: MIC Colistin (ACBA DR 43357): 25.47
MIC (ACBA DR 43357): 1.56 µg/mL
FOLD CHANGES [Absorbance (abs; OD 600 nm)] No Treatment [Bacteria alone]: Colistin 0.5 μg (E. Coli ATCC 8739): 1.85
FOLD CHANGES [Absorbance (abs; OD 600 nm)] No Treatment [Bacteria alone]: MIC Colistin (E. Coli ATCC 8739): 20.68
MIC (E. Coli ATCC 8739): 0.78 µg/mL
FOLD CHANGES [Absorbance (abs; OD 600 nm)] No Treatment [Bacteria alone]: Colistin 0.5 μg (E. Coli ATCC 10536): 1.11
FOLD CHANGES [Absorbance (abs; OD 600 nm)] No Treatment [Bacteria alone]: MIC Colistin (E. Coli ATCC 10536): 18.42
MIC (E. Coli ATCC 10536): 0.78 µg/mL
FOLD CHANGES [Absorbance (abs; OD 600 nm)] No Treatment [Bacteria alone]: Colistin 0.5 μg (E. Coli ATCC 25922): 1.23
FOLD CHANGES [Absorbance (abs; OD 600 nm)] No Treatment [Bacteria alone]: MIC Colistin (E. Coli ATCC 25922): 18.24
MIC (E. Coli ATCC 25922): 0.78 µg/mL
FOLD CHANGES [Absorbance (abs; OD 600 nm)] No Treatment [Bacteria alone]: Colistin 0.5 μg (E. Coli ATCC 35218): 1.31
FOLD CHANGES [Absorbance (abs; OD 600 nm)] No Treatment [Bacteria alone]: MIC Colistin (E. Coli ATCC 35218): 24.46
MIC (E. Coli ATCC 35218): 0.78 µg/mL
FOLD CHANGES [Absorbance (abs; OD 600 nm)] No Treatment [Bacteria alone]: Colistin 0.5 μg (E. Coli CRE 11804): 1.19
FOLD CHANGES [Absorbance (abs; OD 600 nm)] No Treatment [Bacteria alone]: MIC Colistin (E. Coli CRE 11804): 17.29
MIC (E. Coli CRE 11804): 0.78 µg/mL
FOLD CHANGES [Absorbance (abs; OD 600 nm)] No Treatment [Bacteria alone]: Colistin 0.5 μg (E. Coli CRE 17232): 1.31
FOLD CHANGES [Absorbance (abs; OD 600 nm)] No Treatment [Bacteria alone]: MIC Colistin (E. Coli CRE 17232): 16.09
MIC (E. Coli CRE 17232): 0.78 µg/mL
FOLD CHANGES [Absorbance (abs; OD 600 nm)] No Treatment [Bacteria alone]: Colistin 0.5 μg (E. Coli CRE 17528): 1.45
FOLD CHANGES [Absorbance (abs; OD 600 nm)] No Treatment [Bacteria alone]: MIC Colistin (E. Coli CRE 17528): 20.21
MIC (E. Coli CRE 17528): 0.78 µg/mL
FOLD CHANGES [Absorbance (abs; OD 600 nm)] No Treatment [Bacteria alone]: Colistin 0.5 μg (E. Coli CRE 19211): 1.17
FOLD CHANGES [Absorbance (abs; OD 600 nm)] No Treatment [Bacteria alone]: MIC Colistin (E. Coli CRE 19211): 20.56
MIC (E. Coli CRE 19211): 1.56 µg/mL
FOLD CHANGES [Absorbance (abs; OD 600 nm)] No Treatment [Bacteria alone]: Colistin 0.5 μg (E. Coli CRE 34685): 1.49
FOLD CHANGES [Absorbance (abs; OD 600 nm)] No Treatment [Bacteria alone]: MIC Colistin (E. Coli CRE 34685): 22.63
MIC (E. Coli CRE 34685): 0.78 µg/mL
